From patent publication US5670506A, “Halogen, isothiocyanate or azide substituted xanthines” (Cell Therapeutics, Inc., priority 1993, dated 1997)
pIC50: −log10 of the molar value.

Key:
human lymphocytes [1] = assay: inhibition of blast formation from human lymphocytes stimulated by anti-CD3 antibody; assay type: cell-based; settings: Lymphocyte, FIG. 10, read-out: IC50, blastogenesis stimulated by anti-CD3
Experimental: (§1) This is a human in vitro assay for immunosuppressive activity of the inventive compounds.
(§2) A third assay measures an ability of an inventive compound to inhibit IL-2-induced proliferation of murine thymocytes. Thymus glands are obtained from 4-6 week old mice and plated as a single cell suspension into flat bottomed wells in RPMI 1640 medium supplemented with 10% fetal calf serum. The inventive compounds are added to appropriate wells and the cells are incubated for 1-2 hrs. Concanavilin A (ConA, 0.25 μg/ml) and IL-1 (20 ng/ml) are added and the plates are incubated for 4 days. Cell proliferation is determined as above. There are also variations for this assay that follow the same basic stimulation and measure inhibition of proliferation format. For example, splenocytes can be used instead of thymocytes to measure more of a B cell response than a T cell response (e.g., thymocytes) and stimulated by an anti-mu antibody (40 μg/ml), IL-4 or PMA (2.5 nM). Similarly, human lymphocytes can be used from normal human volunteers and stimulated with human IL-2 (100 U/ml, Genzyme) and/or anti-CD3 antibody (2.5 μg/ml, Boehinger Mannheim).
(§3) This example illustrates an experiment showing the effects of CT1525, CT1529 and CT1595 (see Table 1 above for chemical names) on inhibition of blast formation from human lymphocytes stimulated by IL-2 or an anti-CD3 antibody (FIG. 10). […]

murine thymocytes = assay: inhibition of murine thymocyte proliferation stimulated by ConA and IL-1α; assay type: cell-based, murine (Balb/C mice); settings: FIG. 4, 4 days
Experimental: The drugs (inventive compounds) were added to the cells at the doses indicated two hours prior to activation with ConA and IL-1α. […] Background counts were less than 200 cpm. This in vitro assay is a model for immune suppression and treatment or prevention of autoimmune diseases.
A third assay measures an ability of an inventive compound to inhibit IL-2-induced proliferation of murine thymocytes. Thymus glands are obtained from 4-6 week old mice and plated as a single cell suspension into flat bottomed wells in RPMI 1640 medium supplemented with 10% fetal calf serum. The inventive compounds are added to appropriate wells and the cells are incubated for 1-2 hrs. Concanavilin A (ConA, 0.25 μg/ml) and IL-1 (20 ng/ml) are added and the plates are incubated for 4 days. Cell proliferation is determined as above. There are also variations for this assay that follow the same basic stimulation and measure inhibition of proliferation format. […]
This example illustrates the effect of CT1514, CT1525, CT1527, CT1529, CT1577, CT1583, CT1589, CT1595, CT2519, CT1205, CT1801 and CT1908 on inhibition of murine thymocyte proliferation stimulated by Concanavalin A (ConA) and interleukin-2 (IL-2) (FIG. 4). […] The cells were harvested and incorporated tritiated thymidine was determined in a liquid scintillation counter. […]

human lymphocytes [2] = assay: inhibition of blast formation from human lymphocytes stimulated by IL-2; assay type: cell-based; settings: Lymphocyte, FIG. 10, read-out: IC50, blastogenesis stimulated by IL-2
Experimental: as §1, §2, §3

Saccharomyces cervisiae = assay: yeast growth inhibition; assay type: cell-based; settings: FIG. 6
Experimental: This assay measures anti-yeast and anti-fungal activity of the drugs tested.
Some of the inventive compounds are effective for inhibiting yeast cell growth. This effect can be assayed by measuring growth of the yeast strain Saccharomyces cervisiae. A control yeast stain Saccharomyces cervisiae (BIO 101, Inc.) is grown overnight in YEPD broth at 30° C. An one to hundred dilution of the yeast culture is made with fresh YEPD broth. 100 μl Aliquots of the diluted culture are distributed into 96-wells titer plates. 100 μl Aliquots of drug is diluted in YEPD broth were then added to the wells. The titer plates are incubated at room temperature with continuous shaking. The cell density of the individual cultures are determined using a mircoplate reader with a A630 filter. The A630 of the individual yeast cultures are compared to control samples without adding drug. This assay is predictive of direct antimicrobial, particularly yeast and fungal, activity of the drugs studied.
This example illustrates the effects of CT2501R (a reference compound), CT1529, CT1589 and CT1519 (see Table 1 for chemical names) on yeast growth (Saccharomyces cervisiae) in the presence or absence of drug. This assays measures anti-yeast and anti-fungal activity of the drugs tested.

## Cn1cnc2c1c(=O)n(CCCCC(=O)CCl)c(=O)n2C [CT1595, 1-(6-chloro-5-oxohexyl)-3,7-dimethylxanthine]
Human lymphocytes [1]
  pIC50: > 5.30
Murine thymocytes
  inhibition of thymocyte proliferation: most potent drugs
Human lymphocytes [2]
  pIC50: > 5.30
Saccharomyces cervisiae
  yeast growth inhibition: strongly inhibited yeast growth
